Here are results for ten compounds from PubChem BioAssay (NCI).

Among the test systems are U251 CNS; LOX IMVI melanoma; KM12 colon; SN12C renal; COLO 205 colon; CCRF-CEM leukemia; OVCAR-4 ovarian; UO-31 renal.
Holding throughout (experiment): NCI anticancer screen, dose series, 48 h

Several values for one entry are separate records, joined by “and”; a condition that tells them apart may be missing. Identical values can stand only once.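 Values below derive from 48-hour exposures of cells grown in 96-well plates, with endpoints linearly interpolated between the two concentrations bracketing the appropriate inhibition level. GI50 marks 50% less growth. TGI is the concentration that stops growth completely.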 Some results are limits rather than exact numbers.

As for `CC(C(=O)O)c1ccc(-c2ccccc2)c(F)c1` (stereo not drawn), the TGI with U251 CNS, in the experiment with LOX IMVI melanoma, in the experiment on KM12 colon, in the experiment on SN12C renal, in the experiment with COLO 205 colon and in the experiment with CCRF-CEM leukemia was above 100 µM in each case. In addition, the TGI in the experiment on OVCAR-4 ovarian and in the experiment with UO-31 renal was above 100 µM each time.

As to `N=c1ccc2nc3c(cc(N)c4ccccc43)oc-2c1`, the GI50 is 0.223 µM with U251 CNS; 0.103 µM with LOX IMVI melanoma; 0.236 µM with KM12 colon; 0.253 µM in the experiment on SN12C renal; 0.237 µM with COLO 205 colon; 0.546 µM in the experiment on CCRF-CEM leukemia. Further, the GI50 in the experiment on OVCAR-4 ovarian is 0.0919 µM; in the experiment with UO-31 renal it was 0.333 µM. The TGI in the experiment with U251 CNS came to 0.664 µM; in the experiment with LOX IMVI melanoma it was 0.378 µM; in the experiment with KM12 colon it was 0.845 µM; in the experiment on SN12C renal, 0.801 µM; in the experiment with COLO 205 colon, 0.892 µM; in the experiment with CCRF-CEM leukemia, 3.28 µM. Further, the TGI with OVCAR-4 ovarian was 0.235 µM; in the experiment with UO-31 renal, 0.958 µM.

For `O=C(N/N=C/c1ccc(Cl)cc1)c1[nH]c2ccc(Cl)cc2c1-c1ccccc1`, the GI50 is 0.255 µM in the experiment with U251 CNS; 0.12 µM in the experiment on LOX IMVI melanoma; 0.181 µM in the experiment on KM12 colon; 0.206 µM in the experiment with SN12C renal; 0.202 µM with COLO 205 colon; 0.0986 µM with CCRF-CEM leukemia. For the same compound, the results for the GI50 in the experiment with OVCAR-4 ovarian and in the experiment on UO-31 renal were 0.183 µM and 0.268 µM, respectively. Besides, the TGI in the experiment on U251 CNS was 4.68 µM; in the experiment with LOX IMVI melanoma, above 37.4 µM; in the experiment with KM12 colon, 0.568 µM; in the experiment on SN12C renal, above 70.4 µM; with COLO 205 colon it was 0.406 µM; in the experiment on OVCAR-4 ovarian it was above 79.3 µM. Besides, the TGI with UO-31 renal was above 65 µM.

As to `CNCCNc1nc2ccccc2c2c(=O)c3cc(OC)ccc3sc12`, the GI50 in the experiment on U251 CNS is 1.5 µM; with LOX IMVI melanoma, 1.51 µM; with KM12 colon, 1.8 µM; in the experiment with SN12C renal it was 1.5 µM; in the experiment with COLO 205 colon, 1.64 µM; with CCRF-CEM leukemia, 1.76 µM. For the same compound, the GI50 with OVCAR-4 ovarian was 1.68 µM; in the experiment with UO-31 renal, 1.29 µM. Further, the TGI in the experiment with U251 CNS came out at 2.92 µM; in the experiment with LOX IMVI melanoma, 2.88 µM; in the experiment with KM12 colon, 3.48 µM; in the experiment with SN12C renal, 2.96 µM; in the experiment with COLO 205 colon it was 3.34 µM; in the experiment on CCRF-CEM leukemia, 3.46 µM. Moreover, the TGI in the experiment on OVCAR-4 ovarian worked out at 3.22 µM; in the experiment on UO-31 renal it was 2.6 µM.

On to `CCCCN(CCCC)CCc1c(C)cc(C)c(CCN(CCCC)CCCC)c1O`, for which the GI50 in the experiment on U251 CNS was 3.24 µM; in the experiment with LOX IMVI melanoma, 2.67 µM; in the experiment with KM12 colon it was 3.2 µM; with SN12C renal it was 2.85 µM; in the experiment with COLO 205 colon, 1.96 µM; with CCRF-CEM leukemia, 3.12 µM. Further, the GI50 was 3.13 µM in the experiment with OVCAR-4 ovarian and 2.69 µM in the experiment with UO-31 renal. Besides, the TGI in the experiment with U251 CNS was 42.6 µM; in the experiment on LOX IMVI melanoma, above 100 µM; in the experiment with KM12 colon, 21.2 µM; in the experiment with SN12C renal, 9.43 µM; with COLO 205 colon, 4.14 µM; in the experiment with CCRF-CEM leukemia, above 100 µM. For the same compound, the TGI in the experiment on OVCAR-4 ovarian is above 100 µM; in the experiment with UO-31 renal, 16.8 µM.

Regarding `COc1cc2c(c(OC)c1OC)-c1ccc(O)c(=O)cc1[C@@H](NC(C)=O)CC2`, the GI50 was 5.93 µM in the experiment on U251 CNS; 5.89 µM in the experiment with LOX IMVI melanoma; 8.68 µM with KM12 colon; 7.93 µM in the experiment on SN12C renal; 4.1 µM in the experiment with COLO 205 colon; 3.67 µM with CCRF-CEM leukemia. Moreover, the results for the GI50 in the experiment on OVCAR-4 ovarian and with UO-31 renal were 3.64 µM and 4.42 µM, respectively. Besides, the TGI with U251 CNS was > 100 µM and 35.4 µM; with LOX IMVI melanoma, > 100 µM and 60.1 µM; in the experiment with KM12 colon, > 100 µM and 32.8 µM; in the experiment with SN12C renal, 88.2 µM and 35 µM; with COLO 205 colon it was > 100 µM and 35.4 µM; in the experiment with CCRF-CEM leukemia it was above 100 µM. Besides, the TGI was > 100 µM and 66.1 µM with OVCAR-4 ovarian; 63.8 µM and 89 µM in the experiment with UO-31 renal.

`C/C=C(/C)c1cnc(CC(C)C)c(=O)[nH]1`: the TGI in the experiment with U251 CNS, with LOX IMVI melanoma, in the experiment with KM12 colon, in the experiment on SN12C renal, in the experiment on COLO 205 colon and in the experiment with CCRF-CEM leukemia was above 100 µM in each case. The TGI in the experiment on OVCAR-4 ovarian and in the experiment on UO-31 renal was above 100 µM throughout.

With `Clc1ccc2c(c1)C(N1CCNCC1)=Nc1ccccc1O2`, the GI50 is 1.51 µM with U251 CNS; 1.54 µM in the experiment on LOX IMVI melanoma; 1.73 µM in the experiment with KM12 colon; 2.87 µM in the experiment with SN12C renal; 1.36 µM with COLO 205 colon; 1.9 µM with CCRF-CEM leukemia. Besides, the GI50 in the experiment with OVCAR-4 ovarian was 2.45 µM; in the experiment with UO-31 renal it was 1.64 µM. Further, the TGI in the experiment on U251 CNS came out at 2.99 µM; in the experiment on LOX IMVI melanoma, 2.87 µM; with KM12 colon, 3.28 µM; in the experiment with SN12C renal, 13.6 µM; with COLO 205 colon it was 2.67 µM; in the experiment with CCRF-CEM leukemia, 4.77 µM. The TGI in the experiment on OVCAR-4 ovarian was 8.72 µM; in the experiment on UO-31 renal, 10.6 µM.

As for `COc1cc(/C=C2\CN(C(=O)CCN3CCC(=NO)CC3)C/C(=C\c3cc(OC)c(OC)c(OC)c3)C2=O)cc(OC)c1OC`, the GI50 in the experiment with U251 CNS was 0.291 µM; in the experiment with LOX IMVI melanoma, 0.194 µM; in the experiment on KM12 colon, 0.263 µM; in the experiment with SN12C renal, 0.241 µM; in the experiment on COLO 205 colon, 0.419 µM; in the experiment on CCRF-CEM leukemia, 0.266 µM. The GI50 was 0.733 µM with OVCAR-4 ovarian and 1.11 µM in the experiment with UO-31 renal. Besides, the TGI was determined as 1.01 µM in the experiment with U251 CNS; 0.472 µM in the experiment on LOX IMVI melanoma; 0.731 µM in the experiment with KM12 colon; 0.695 µM in the experiment on SN12C renal; 1.27 µM in the experiment on COLO 205 colon; 1.6 µM in the experiment on CCRF-CEM leukemia. Moreover, the results for the TGI in the experiment with OVCAR-4 ovarian and in the experiment with UO-31 renal were 2.15 µM and 2.51 µM, respectively.

For `Cn1cc(C2=C(c3cn(C)c4cc(N)ccc34)C(=O)NC2=O)c2ccccc21`, the GI50 with U251 CNS is 1.41 µM; in the experiment with LOX IMVI melanoma, 3.1 µM; with KM12 colon, 1.45 µM; in the experiment on SN12C renal, 3.44 µM; in the experiment with COLO 205 colon it was 1.63 µM; with CCRF-CEM leukemia, 1.02 µM. The GI50 with OVCAR-4 ovarian was 4.41 µM; in the experiment with UO-31 renal, 2.54 µM. Also, the TGI with U251 CNS is 10.2 µM; in the experiment with LOX IMVI melanoma, above 25 µM; in the experiment with KM12 colon, 11.8 µM; with SN12C renal, 17 µM; in the experiment on COLO 205 colon, 9.59 µM; in the experiment on CCRF-CEM leukemia, above 11.2 µM. For the same compound, the TGI was 17.4 µM with OVCAR-4 ovarian and 15.4 µM with UO-31 renal.
